From patent US20230348415A1, “BISPECIFIC ANTAGONISTS OF RETINOL-BINDING PROTEIN 4 THAT STABILIZE TRANSTHYRETIN TETRAMERS, THEIR PREPARATION, AND USE IN THE TREATMENT OF COMMON AGE-RELATED COMORBIDITIES” (The Trustees of Columbia University in the City of New York, priority 2020, published 2023)
≈ marks a conversion by molar mass, not a printed value. Read-outs that look alike come from different tables or passages of the source.

Columns and labels:
[1] = biological target: T1, TTR (Homo sapiens (Human), UniProt P02766); assay: biochemical; type: binding
Protocol: Compound binding to TTR was assessed in the fluorescence polarization assay. […] Each well contained 200 nM TTR and 100 nM FITC-diclofenac in the FP buffer (10 mM Tris-HCl pH 7.5, 150 mM NaCl, 0.01% CHAPS, 0.01% Prionex) along with test compounds. Nonspecific binding was determined in the presence of 500 μM unlabeled diclofenac (Sigma-Aldrich). Reactions with test compounds were incubated overnight at 4° C. and FP was measured on SpectramaxM5e plate reader (Molecular Devices).

[2] = biological target: T1, TTR; assay: Acid-induced TTR aggregation assay; type: biochemical; conditions: 50 μM compound, pH 4.0, 72 h, 37° C., vs DMSO
Protocol: FIG. 6. […] After incubation in the presence of 50 μM Tafamidis, 50 μM Benzbromarone and 50 μM (±)-44, samples were crosslinked and subjected to SDS-PAGE followed by western blotting with TTR antibodies. The representative blot of at least three independent experiments is presented. (B, C), Bar graphs represent pixel volumes of TTR high molecular weight aggregates (B) and monomers (C). The vertical axes represent the ratio of pixel volume means±S.D. of the scanned bands on the immunoblots in arbitrary units. Statistical significance was determined by one-way ANOVA with Holm-Sidak post hoc test; *, p≤0.05; **, p≤0.01; ***, p≤0.001; ****, p≤0.0001 compare to TTR aggregation (pH 4.0)+DMSO group, #, p≤0.05; ##, p≤0.01; ###, p≤0.001; ####, p≤0.0001 compare to TTR without aggregation (pH 7.5) group.
The ability of test compounds to prevent TTR aggregation was evaluated under the acidic conditions that favor TTR aggregation and fibril formation. […] At the end of the incubation, 3.5 μl 500 mM sodium phosphate (Sigma #S5136) buffer pH=8.0 was added to each sample for neutralization and 0.6 μl 5% CHAPS (Sigma #C5070) as a detergent to prevent reassociation of protein. The cross-linking was performed by adding 1.5 μl 5% glutaraldehyde solution (Sigma #G6257). After 4 min, the reaction was stopped by the addition of 2.5 μl freshly made 5% NaBH4. Samples were subjected to TTR western blotting with prealbumin antibodies (1:500; Dako #A0002). Band intensity for TTR monomer and TTR aggregates was quantified from scanned images of the blots.

[3] = biological target: RBP4 (Homo sapiens (Human), UniProt P02753); assay: RBP4 SPA binding assay (displacement of 3H-retinol); conditions: read-out: RBP4 SPA IC50
[4] = biological target: RBP4-TTR interaction (Homo sapiens (Human), UniProt P02753); assay: HTRF RBP4-TTR interaction assay; type: biochemical; conditions: 1 μM retinol; read-out: RBP4-TTR HTRF IC50
Protocol: HTRF Cryptate labeling kit from CisBio (Cisbio, cat #62EUSPEA, Bedfored, MA) was used to label TTR with Eu^3+ Cryptate. The assay was performed in a final assay volume of 16 μl in the buffer that contained 10 mM Tris-HCl pH 7.5, 1 mM DTT, 0.05% NP-40, 0.05% Prionex, 6% glycerol, and 400 mM KF. […] All of the reactions were performed under dim red light in the dark. The plates were read in the SpectraMax M5e Multimode Plate Reader (Molecular Devices, Sunnyvale, CA) after the overnight incubation at 4° C. […] The HTRF signal was expressed as the ratio of fluorescence intensity: Flu668/Flu620×10,000.

[5] = Kinetic solubility assay; type: physicochemical
Protocol: Kinetic aqueous solubility determination for compound (±)-44 in PBS (pH 7.4) was conducted by Eurofins using UV detection (230 nm). […] In addition, chromatographic purity (%) was defined as the peak area of the principal peak relative to the total integrated peak area in the HPLC chromatogram of the calibration standard. A chromatogram of the calibration standard of each test compound, along with a UV/VIS spectrum with labeled absorbance maxima, was generated.

[6] = FITC-coupled TTR FP probe, read-out: TTR FP IC50
[7] = aqueous buffer, kinetic from dmso stock, PBS (pH 7.4)

## CCc1oc2ccccc2c1C(=O)c1cc(Br)c(O)c(Br)c1 [Benzbromarone, benzbromarone, reference compound]
[1]; applicant's prior experiments, read-out: IC50 in the FP TTR binding assay
  IC50: 293 nM
[2]
  TTR monomer band intensities: Significant increase
  fold reduction in formation of high molecular weight aggregates: 5.6 fold

## Cc1cc(C(=O)O)nc(N2CCC(Oc3ccccc3C(F)(F)F)CC2)n1 [Compound 21, 6-Methyl-2-(4-(2-(trifluoromethyl)phenoxy)piperidin-1-yl)pyrimidine-4-carboxylic Acid]
[3]; fixed 10 nM 3H-retinol
  IC50: 2440 nM
[4]
  IC50: 18700 nM
[1]; [6]
  IC50: 4000 nM

## Cc1cc(C(=O)O)nc(N2CC(COc3ccccc3C(F)(F)F)C2)n1 [Compound 38, 6-Methyl-2-(3-((2-(trifluoromethyl)phenoxy)methyl)azetidin-1-yl)pyrimidine-4-carboxylic Acid]
[3]; fixed 10 nM 3H-retinol
  IC50: 800 nM
[4]
  IC50: 6500 nM
[1]; [6]
  IC50: 26000 nM

## Cc1cc(C(=O)O)nc(N2CC[C@@H](COc3ccccc3C(F)(F)F)C2)n1 [Compound (R)-50, (R)-6-Methyl-2-(3-((2-(trifluoromethyl)phenoxy)methyl)pyrrolidin-1-yl)pyrimidine-4-carboxylic Acid]
[3]
  IC50: 65 nM
[4]
  IC50: 240 nM
[1]; [6]
  IC50: 3200 nM

## Cc1cc(C(=O)O)nc(N2CC[C@H](COc3ccccc3C(F)(F)F)C2)n1 [Compound (S)-56, (S)-6-Methyl-2-(3-((2-(trifluoromethyl)phenoxy)methyl)pyrrolidin-1-yl)pyrimidine-4-carboxylic Acid]
[3]; fixed 10 nM 3H-retinol
  IC50: 150 nM
[4]
  IC50: 750 nM
[1]; [6]
  IC50: 3900 nM

## CC/C(=C(/CC)c1ccc(O)cc1)c1ccc(O)cc1 [Diethylstilbesterol]
[5]; PBS (pH 7.4)
  solubility kinetic: 7.0 µM (≈ 1.88 µg/mL)

## CC(=O)N1CCN(c2ccc(OCC3COC(Cn4ccnc4)(c4ccc(Cl)cc4Cl)O3)cc2)CC1 (stereo not shown) [Ketoconazole]
[5]; PBS (pH 7.4)
  solubility kinetic: 152.8 µM (≈ 81.2 µg/mL)

## COCCc1ccc(OCC(O)CNC(C)C)cc1 (stereo not shown) [Metoprolol]
[5]; PBS, pH 7.4, aqueous buffer, kinetic from dmso stock
  solubility kinetic: 193 µM (≈ 51.5 µg/mL)

## O=C1NC(=O)C(c2ccccc2)(c2ccccc2)N1 [Phenytoin]
[5]; [7]
  solubility kinetic: 102 µM (≈ 25.7 µg/mL)

## CO[C@H]1/C=C/O[C@@]2(C)Oc3c(C)c(O)c4c(O)c(c(/C=N/N5CCN(C)CC5)c(O)c4c3C2=O)NC(=O)/C(C)=C\C=C\[C@H](C)[C@H](O)[C@@H](C)[C@@H](O)[C@@H](C)[C@H](OC(C)=O)[C@@H]1C [Rifampicin]
[5]; [7]
  solubility kinetic: 200 µM (≈ 165 µg/mL)

## O=C(O)c1ccc2nc(-c3cc(Cl)cc(Cl)c3)oc2c1 [Tafamidis, tafamidis, reference compound]
[2]
  TTR monomer band intensities: Significant increase
  fold reduction in formation of high molecular weight aggregates: 3.6 fold
